These results are taken from US9115085B2, “Crystalline forms of a prolyl hydroxylase inhibitor” (FibroGen, Inc., priority 2012, dated 2015).

A short description of series [1]: Solid form stability on storage (XRPD). The series is classed as physicochemical. The settings on record: for XRPD pattern / form after storage: 40° C./75% RH. The source says: X-Ray Powder Diffraction patterns were collected on a Bruker AXS C2 GADDS diffractometer using Cu Kα radiation (40 kV, 40 mA), automated XYZ stage, laser video microscope for auto-sample positioning and a HiStar 2-dimensional area detector. X-ray optics consists of a single Gobel multilayer mirror coupled with a pinhole collimator of 0.3 mm. […] Alternatively, X-Ray Powder Diffraction patterns were collected on a Bruker D8 diffractometer using Cu Kα radiation (40 kV, 40 mA), θ-2θ goniometer, and divergence of V4 and receiving slits, a Ge monochromator and a Lynxeye detector. […] The software used for data collection was Diffrac Plus XRD Commander v2.5.0 and the data were analyzed and presented using Diffrac Plus EVA v11.0.0.2 or v13.0.0.2. Samples were run under ambient conditions as flat plate specimens using powder as received. The sample was gently packed into a cavity cut into polished, zero-background (510) silicon wafer. The sample was rotated in its own plane during analysis. The details of the data collection are: • Angular range: 2 to 42°2θ • Step size: 0.05°2θ • Collection time: 0.5 s/step • Analysis duration: 7 minutes Differential Scanning Calorimetry (DSC)

Series [2] is described as follows: Moisture sorption. The series is classed as physicochemical. The settings on record: from 5% to 95% relative humidity; lost on desorption.
For series [3], the system named is Hep3B cells. The series can be described thus: Cell-based EPO assay. The arrangement: species or system human. The settings on record: 30 μM compound in DMSO compared to DMSO only control, 72 hours. As to the method: Hep3B cells (human hepatocellular carcinoma cells from ATCC, cat #HB-8064) were plated at 25,000 cells per well 96 well plates. The next day, the cells were washed once with DMEM (Cellgro, cat #10-013-CM)+0.5% fetal bovine serum (Cellgro, cat #35-010-CV) and incubated with various concentrations of compound or vehicle control (0.15% DMSO) in DMEM+0.5% fetal bovine serum for 72 hours. Cell free culture supernatants were generated by transfer to a conical bottom 96 well plate and centrifugation for 5 minutes at 2000 rpm. The supernatant was quantitated for EPO using a human EPO ELISA kit (R&D Systems, cat #DEP 00). The EPO values for the compounds reported herein (e.g., Table 22) are the measured value for cells plus compound minus the value for the vehicle control for the same cell preparation. The EPO values for the vehicle control for the cell preparations varied from 0-12.5 mIU/mL.

Turning to `Cc1nc(C(=O)NCC(=O)O)c(O)c2ccc(Oc3ccccc3)cc12` [Compound A Form A, [(4-hydroxy-1-methyl-7-phenoxy-isoquinoline-3-carbonyl)-amino]-acetic acid], the “relative stability of crystalline forms” value in series [1] (among Form B, C, and D of Compound A) was “most stable crystalline form”. Moreover, in series [2], the “moisture sorption weight gain” value is “approximately 0.2%”. The “Cell EPO” value in series [3] is reported as 182 mIU/mL.

In the case of `Cc1nc(C(=O)NCC(=O)O)c(O)c2ccc(Oc3ccccc3)cc12.NCCO` [Compound A ethanolamine salt, [(4-hydroxy-1-methyl-7-phenoxy-isoquinoline-3-carbonyl)-amino]-acetic acid ethanolamine salt], in series [1], the “XRPD pattern / form after storage” value was “Pattern 3”.

“[(4-hydroxy-1-methyl-7-phenoxy-isoquinoline-3-carbonyl)-amino]-acetic acid hemihydrate [Compound A Form B]”: in series [1] (ambient temperature, full month (32 days), high resolution XRPD), the “form conversion on storage” value was “almost completely reverted to anhydrous Form A”. Also, the “crystalline pattern change on storage” value in series [1] (stored at 25° C./96% RH for twelve days) was “reverting to Form A”.

Regarding “[(4-hydroxy-1-methyl-7-phenoxy-isoquinoline-3-carbonyl)-amino]-acetic acid diethanolamine salt [Compound A diethanolamine salt]”, the “XRPD pattern / form after storage” value in series [1] is “Pattern 2”.

On to `Cc1nc(C(=O)NCC(=O)O)c(O)c2ccc(Oc3ccccc3)cc12` [Compound A Form D, [(4-hydroxy-1-methyl-7-phenoxy-isoquinoline-3-carbonyl)-amino]-acetic acid DMSO:water solvate], for which the form conversion entry in series [1] (left drying at ambient temperature) was “converted to Form A”.
